Literature values as cited in publication PMC10060569 (Frontiers in Pharmacology, 2023).

Target: T1, S15V-rP2X3R (Rattus norvegicus, UniProt P49654, S15V)
T1 construct: expressed in transfected cells; host or cells: Xenopus laevis oocytes (cRNA injection)
T1 sequence (P49654 1-397 S15V): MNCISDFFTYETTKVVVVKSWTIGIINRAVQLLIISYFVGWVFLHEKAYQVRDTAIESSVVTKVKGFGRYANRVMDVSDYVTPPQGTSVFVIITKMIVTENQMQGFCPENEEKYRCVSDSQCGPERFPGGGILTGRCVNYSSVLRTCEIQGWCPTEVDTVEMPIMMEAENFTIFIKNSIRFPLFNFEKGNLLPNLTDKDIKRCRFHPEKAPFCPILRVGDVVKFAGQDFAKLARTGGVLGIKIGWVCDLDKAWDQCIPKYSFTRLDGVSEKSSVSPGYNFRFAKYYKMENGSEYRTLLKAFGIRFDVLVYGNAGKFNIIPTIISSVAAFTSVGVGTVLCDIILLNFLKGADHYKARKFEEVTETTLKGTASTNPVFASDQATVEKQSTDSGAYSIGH
Set-up: method as in Obrecht et al., 2019
Conditions: previous screening; ref Obrecht et al., 2019; cited from earlier work

Structure (SMILES): O=C(O)Cc1ccccc1Nc1c(Cl)cccc1Cl [Diclofenac, diclofenac]
- inhibition of S15V-rP2X3R-mediated currents in screening: > 80%
